# Measurements reported in ChEMBL document CHEMBL5321281, “Synthesis and Biological Evaluation of Heterocyclic Ring-Fused 20(S)-Protopanaxadiol Derivatives as Potent Antiosteoporosis Agents” (J Med Chem, 2023).
# Legend:
# BMMC [1] = assay: Anti-osteoclastogenic activity in C57/BL6 mouse BMMC cells assessed as inhibition of RANKL-induced osteoclast differentiation at 1 uM incubated for 5 to 7 days in presence of M-CSF by TRAP staining based microscopic analysis relative to control; assay type: functional; conditions: time 5-7 day
# BMMC [2] = assay: Anti-osteoclastogenic activity in C57/BL6 mouse BMMC cells assessed as inhibition of RANKL-induced osteoclast differentiation at 5 uM incubated for 5 to 7 days in presence of M-CSF by TRAP staining based microscopic analysis relative to control; assay type: functional; conditions: time 5-7 day
# BMMC [3] = assay: Cytotoxicity against C57/BL6 mouse BMMC cells assessed as reduction in cell viability at 10 uM incubated for 24 hrs by CCK-8 assay; assay type: toxicity, cell-based
# BMMC [4] = assay: Anti-osteoclastogenic activity in C57/BL6 mouse BMMC cells assessed as inhibition of RANKL-induced osteoclast differentiation at 0.1 uM incubated for 5 to 7 days in presence of M-CSF by TRAP staining based microscopic analysis relative to control; assay type: functional; conditions: time 5-7 day
# BMMC [5] = assay: Anti-osteoclastogenic activity in C57/BL6 mouse BMMC cells assessed as inhibition of RANKL-induced osteoclast differentiation at 0.01 uM incubated for 5 to 7 days in presence of M-CSF by TRAP staining based microscopic analysis relative to control; assay type: functional; conditions: time 5-7 day
# BMMC [6] = assay: Anti-osteoclastogenic activity in C57/BL6 mouse BMMC cells assessed as inhibition of RANKL-induced osteoclast differentiation incubated for 5 to 7 days in presence of M-CSF by TRAP staining based microscopic analysis relative to control; assay type: functional, cell-based
SMILES,inhibition at 1 µM (BMMC [1]) [%],inhibition at 5 µM (BMMC [2]) [%],Activity (BMMC [3]),inhibition at 0.1 µM (BMMC [4]) [%],inhibition at 0.01 µM (BMMC [5]) [%],IC50 (BMMC [6]) [µM]
CC(C)=CCC[C@](C)(O)[C@H]1CC[C@]2(C)[C@@H]1[C@H](O)C[C@@H]1[C@@]3(C)Cc4cn[nH]c4C(C)(C)[C@@H]3CC[C@]12C,41.2,84.8,>= 100%,–,–,–
CCc1ncc2c(n1)C(C)(C)[C@@H]1CC[C@]3(C)[C@H](C[C@@H](O)[C@@H]4[C@@H]([C@@](C)(O)CCC=C(C)C)CC[C@]43C)[C@@]1(C)C2,100,–,>= 100%,90.4,–,–
CC(C)=CCC[C@](C)(O)[C@H]1CC[C@]2(C)[C@@H]1[C@H](O)C[C@@H]1[C@@]3(C)Cc4nonc4C(C)(C)[C@@H]3CC[C@]12C,18.8,64.2,>= 100%,–,–,–
CC(C)=CCC[C@](C)(O)[C@H]1CC[C@]2(C)[C@@H]1[C@@H](O)C[C@@H]1[C@@]3(C)Cc4cnc(C)nc4C(C)(C)[C@@H]3CC[C@]12C,–,–,>= 100%,84.4,0,–
CC(C)=CC/C=C(\C)[C@H]1CC[C@]2(C)[C@@H]1[C@H](O)C[C@@H]1[C@@]3(C)Cc4cnc(C)nc4C(C)(C)[C@@H]3CC[C@]12C,–,–,>= 100%,96.8,27.4,–
CC(C)=CCC[C@](C)(O)[C@H]1CC[C@]2(C)[C@@H]1[C@H](O)C[C@@H]1[C@@]3(C)Cc4cnc(N)nc4C(C)(C)[C@@H]3CC[C@]12C,100,–,>= 100%,51.2,–,–
CC(C)=CCC[C@](C)(O)[C@H]1CC[C@]2(C)[C@@H]1/C(=N/O)C[C@@H]1[C@@]3(C)Cc4cnc(C)nc4C(C)(C)[C@@H]3CC[C@]12C,–,–,>= 100%,61.1,0,–
CC(C)=CCC[C@](C)(O)[C@H]1CC[C@]2(C)[C@@H]1C(=O)C[C@@H]1[C@@]3(C)Cc4cnc(C)nc4C(C)(C)[C@@H]3CC[C@]12C,–,–,>= 100%,75.8,8.68,–
CC(C)=CCC[C@](C)(O)[C@H]1CC[C@]2(C)[C@@H]1[C@H](O)C[C@@H]1[C@@]3(C)CC[C@H](O)C(C)(C)[C@@H]3CC[C@]12C,10.2,63.9,>= 100%,–,–,11.8
COc1ncc2c(n1)C(C)(C)[C@@H]1CC[C@]3(C)[C@H](C[C@@H](O)[C@@H]4[C@@H]([C@@](C)(O)CCC=C(C)C)CC[C@]43C)[C@@]1(C)C2,93.7,–,>= 100%,52.6,–,–
CC(=O)O[C@@H]1C[C@@H]2[C@@]3(C)Cc4cnc(C)nc4C(C)(C)[C@@H]3CC[C@@]2(C)[C@]2(C)CC[C@H]([C@@](C)(O)CCC=C(C)C)[C@@H]12,–,–,>= 100%,62.2,6.68,–
CC(C)=CCC[C@](C)(O)[C@H]1CC[C@]2(C)[C@@H]1[C@H](O)C[C@@H]1[C@@]3(C)Cc4cncnc4C(C)(C)[C@@H]3CC[C@]12C,95.3,100,>= 100%,51.9,–,–
CC(C)=CCC[C@](C)(O)[C@H]1CC[C@]2(C)[C@@H]1[C@H](O)C[C@@H]1[C@@]3(C)Cc4cnc(-c5ccccc5)nc4C(C)(C)[C@@H]3CC[C@]12C,45.5,–,>= 100%,0,–,–
CC(C)=CCC[C@](C)(O)[C@H]1CC[C@]2(C)[C@@H]1[C@H](O)C[C@@H]1[C@@]3(C)Cc4cnn(-c5ccccc5)c4C(C)(C)[C@@H]3CC[C@]12C,0,12.9,>= 100%,–,–,–
Cc1ncc2c(n1)C(C)(C)[C@@H]1CC[C@]3(C)[C@H](C[C@@H](O)[C@@H]4[C@@H]([C@@](C)(O)CCCC(C)C)CC[C@]43C)[C@@]1(C)C2,–,–,>= 100%,96,9.2,–
CC(C)=CCC[C@](C)(O)[C@H]1CC[C@]2(C)[C@@H]1[C@H](O)C[C@@H]1[C@@]3(C)Cc4cnoc4C(C)(C)[C@@H]3CC[C@]12C,3.2,71.5,>= 100%,–,–,–
CC(C)=CCC[C@](C)(O)[C@H]1CC[C@]2(C)[C@@H]1[C@H](O)C[C@@H]1[C@@]3(C)Cc4cnc(C)nc4C(C)(C)[C@@H]3CC[C@]12C,100,–,>= 100%,96.8,34.5,–
CCOc1ncc2c(n1)C(C)(C)[C@@H]1CC[C@]3(C)[C@H](C[C@@H](O)[C@@H]4[C@@H]([C@@](C)(O)CCC=C(C)C)CC[C@]43C)[C@@]1(C)C2,94.1,–,86.9%,45.7,–,–
CC(C)=CCC[C@](C)(O)[C@H]1CC[C@]2(C)[C@@H]1[C@H](O)C[C@@H]1[C@@]3(C)Cc4nccnc4C(C)(C)[C@@H]3CC[C@]12C,43.7,100,>= 100%,–,–,–
